Assay results: PubChem BioAssay (NCI)
Where “and” joins values, the source holds several entries; their conditions need not be identical. Equal entries are not always repeated.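 Tested at 5 concentrations; 48 h exposure; 96-well plates; endpoints linearly interpolated, else capped at highest concentration. GI50 is the concentration that inhibits growth by half. TGI is the concentration that stops growth completely.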

Legend:
Assay in all cases: growth of human tumour cells (NCI), 48 h
A549 NSCLC = system: A549 NSCLC
CAKI-1 renal = system: CAKI-1 renal
HOP-62 NSCLC = system: HOP-62 NSCLC
MDA-MB-435 = system: MDA-MB-435
OVCAR-3 ovarian = system: OVCAR-3 ovarian
OVCAR-8 ovarian = system: OVCAR-8 ovarian
RXF 393 renal = system: RXF 393 renal
SF-295 CNS = system: SF-295 CNS
SK-MEL-28 melanoma = system: SK-MEL-28 melanoma
UACC-62 melanoma = system: UACC-62 melanoma

CC1=CC2C(O1)C1C(=O)C=CC(=O)C1=CC2[N+](=O)[O-] (stereo not drawn)
TGI (A549 NSCLC): 43.5 µM | TGI (CAKI-1 renal): 9.33 µM | TGI (HOP-62 NSCLC): 48.7 µM | TGI (MDA-MB-435): 26.4 µM | TGI (OVCAR-3 ovarian): 30.7 µM | TGI (OVCAR-8 ovarian): 60.2 µM | TGI (RXF 393 renal): 28.2 µM | TGI (SF-295 CNS): 34.5 µM | TGI (SK-MEL-28 melanoma): 68.4 µM | TGI (UACC-62 melanoma): 36.2 µM

Cc1c2cnccc2c(C)c2c1c1ccccc1n2CCCN
GI50 (A549 NSCLC): 0.0471 µM | TGI (A549 NSCLC): 1.29 µM and 0.447 µM | GI50 (CAKI-1 renal): 0.779 µM and 0.295 µM | TGI (CAKI-1 renal): 1.9 µM and 1.41 µM | GI50 (HOP-62 NSCLC): 0.0687 µM | TGI (HOP-62 NSCLC): 1.52 µM and 0.597 µM | TGI (MDA-MB-435): 0.46 µM | GI50 (OVCAR-3 ovarian): 0.721 µM and 0.251 µM | TGI (OVCAR-3 ovarian): 1.84 µM and 0.833 µM | GI50 (OVCAR-8 ovarian): 0.205 µM | TGI (OVCAR-8 ovarian): 1.41 µM and 1.22 µM | TGI (RXF 393 renal): 0.799 µM and 0.888 µM | GI50 (SF-295 CNS): 0.285 µM and 0.24 µM | TGI (SF-295 CNS): 0.865 µM and 1.24 µM | GI50 (SK-MEL-28 melanoma): 0.333 µM | TGI (SK-MEL-28 melanoma): 1.98 µM and 1.25 µM | GI50 (UACC-62 melanoma): 0.517 µM | TGI (UACC-62 melanoma): 1.7 µM and 1.75 µM

O=C(NNC(=O)c1ccccc1SSc1ccccc1C(=O)NNC(=O)c1ccccc1S)c1ccccc1S
TGI (A549 NSCLC): > 100 µM | TGI (CAKI-1 renal): > 100 µM | TGI (HOP-62 NSCLC): > 100 µM | TGI (MDA-MB-435): > 100 µM | TGI (OVCAR-3 ovarian): > 100 µM | TGI (OVCAR-8 ovarian): > 100 µM | TGI (RXF 393 renal): > 100 µM | TGI (SF-295 CNS): > 100 µM | TGI (SK-MEL-28 melanoma): > 91.7 µM | TGI (UACC-62 melanoma): 54.8 µM

O=c1[nH]cc(N=Cc2cc(Cl)cc(Cl)c2O)c(=O)[nH]1
TGI (A549 NSCLC): > 100 µM | TGI (CAKI-1 renal): 57.7 µM | TGI (HOP-62 NSCLC): 57 µM | TGI (MDA-MB-435): 61.8 µM | TGI (OVCAR-3 ovarian): 47.1 µM | TGI (OVCAR-8 ovarian): > 100 µM | TGI (RXF 393 renal): > 100 µM | TGI (SF-295 CNS): 96.1 µM | TGI (SK-MEL-28 melanoma): 54.5 µM | TGI (UACC-62 melanoma): 61.5 µM

COc1ccc(C(OCC2OC(n3cc(C)c(=O)[nH]c3=O)CC2n2cc(Cn3cc(I)c(=O)[nH]c3=O)nn2)(c2ccccc2)c2ccccc2)cc1 (stereo not drawn)
TGI (A549 NSCLC): > 100 µM | TGI (CAKI-1 renal): > 100 µM | TGI (HOP-62 NSCLC): > 100 µM | TGI (MDA-MB-435): > 100 µM | TGI (OVCAR-3 ovarian): > 100 µM | TGI (OVCAR-8 ovarian): > 100 µM | TGI (RXF 393 renal): > 100 µM | TGI (SF-295 CNS): > 100 µM | TGI (SK-MEL-28 melanoma): > 100 µM | TGI (UACC-62 melanoma): > 100 µM

Cc1nc(C(N)=S)sc1/C(CC(=O)C(=O)Nc1cccc2ccc(O)cc12)=N\NC(=O)c1ccncc1
TGI (A549 NSCLC): > 100 µM | TGI (CAKI-1 renal): > 100 µM | TGI (HOP-62 NSCLC): > 100 µM | TGI (MDA-MB-435): > 100 µM | TGI (OVCAR-3 ovarian): > 100 µM | TGI (OVCAR-8 ovarian): > 100 µM | TGI (RXF 393 renal): > 100 µM | TGI (SF-295 CNS): > 100 µM | TGI (SK-MEL-28 melanoma): > 100 µM | TGI (UACC-62 melanoma): > 100 µM

COc1cc2c(cc1OC)C(c1ccccc1CCCCl)=NCC2
TGI (A549 NSCLC): > 100 µM | TGI (CAKI-1 renal): > 100 µM | TGI (HOP-62 NSCLC): > 100 µM | TGI (MDA-MB-435): 45.9 µM | TGI (OVCAR-3 ovarian): > 100 µM | TGI (OVCAR-8 ovarian): > 100 µM | TGI (RXF 393 renal): > 100 µM | TGI (SF-295 CNS): > 100 µM | TGI (SK-MEL-28 melanoma): 49.7 µM | TGI (UACC-62 melanoma): > 100 µM

O=C(CCC(=O)c1ccc(Cl)cc1)NO
TGI (A549 NSCLC): > 100 µM | TGI (CAKI-1 renal): > 100 µM | TGI (HOP-62 NSCLC): > 100 µM | TGI (MDA-MB-435): > 100 µM | TGI (OVCAR-3 ovarian): > 100 µM | TGI (OVCAR-8 ovarian): > 100 µM | TGI (RXF 393 renal): > 100 µM | TGI (SF-295 CNS): > 100 µM | TGI (SK-MEL-28 melanoma): > 100 µM | TGI (UACC-62 melanoma): > 100 µM

COC(=O)c1cc2c(n1S(=O)(=O)c1ccc(C)cc1)C(=O)C(=O)c1[nH]cc(C(=O)OCc3ccccc3)c1-2
TGI (A549 NSCLC): 0.351 µM | TGI (CAKI-1 renal): 1.28 µM | TGI (HOP-62 NSCLC): 0.385 µM | TGI (MDA-MB-435): 0.0301 µM | TGI (OVCAR-3 ovarian): 0.0913 µM | TGI (OVCAR-8 ovarian): 0.706 µM | TGI (RXF 393 renal): 0.824 µM | TGI (SF-295 CNS): 0.259 µM | TGI (SK-MEL-28 melanoma): 0.226 µM | TGI (UACC-62 melanoma): 0.138 µM

CC(C)C1/C(=N/O)CC(c2ccccc2)N(N=O)C1c1ccccc1 (stereo not drawn)
TGI (A549 NSCLC): > 100 µM | TGI (CAKI-1 renal): 89.7 µM | TGI (HOP-62 NSCLC): > 100 µM | TGI (MDA-MB-435): 72.4 µM | TGI (OVCAR-3 ovarian): > 100 µM | TGI (OVCAR-8 ovarian): > 100 µM | TGI (RXF 393 renal): > 100 µM | TGI (SF-295 CNS): > 100 µM | TGI (SK-MEL-28 melanoma): > 100 µM | TGI (UACC-62 melanoma): 45.3 µM

O=[N+]([O-])/C(C(Cl)=C(Cl)Cl)=C(\SCc1ccccc1)N1CCCCC1
TGI (A549 NSCLC): > 100 µM | TGI (CAKI-1 renal): > 100 µM | TGI (HOP-62 NSCLC): > 100 µM | TGI (MDA-MB-435): 35.5 µM | TGI (OVCAR-3 ovarian): 34.6 µM | TGI (OVCAR-8 ovarian): 54.5 µM | TGI (RXF 393 renal): 62.6 µM | TGI (SF-295 CNS): 81.9 µM | TGI (SK-MEL-28 melanoma): > 100 µM | TGI (UACC-62 melanoma): 72 µM

Cc1ccccc1-n1c(=O)c2ncn(CCCl)c2n(-c2ccccc2C)c1=S
TGI (A549 NSCLC): > 100 µM | TGI (CAKI-1 renal): > 100 µM | TGI (HOP-62 NSCLC): > 100 µM | TGI (MDA-MB-435): > 100 µM | TGI (OVCAR-3 ovarian): > 100 µM | TGI (OVCAR-8 ovarian): > 100 µM | TGI (RXF 393 renal): > 100 µM | TGI (SF-295 CNS): > 100 µM | TGI (SK-MEL-28 melanoma): > 100 µM | TGI (UACC-62 melanoma): > 100 µM

N#CC1=C(N)N(c2ccccc2)C(c2ccco2)C1(C#N)C#N (stereo not drawn)
TGI (A549 NSCLC): > 100 µM | TGI (CAKI-1 renal): > 100 µM | TGI (HOP-62 NSCLC): 54.3 µM | TGI (MDA-MB-435): 71.8 µM | TGI (OVCAR-3 ovarian): 56.7 µM | TGI (OVCAR-8 ovarian): 51.8 µM | TGI (RXF 393 renal): 37.1 µM | TGI (SF-295 CNS): 93.9 µM | TGI (SK-MEL-28 melanoma): 38.9 µM | TGI (UACC-62 melanoma): 59.3 µM

Oc1cccc2c(Cl)ccnc12
TGI (A549 NSCLC): > 100 µM | TGI (CAKI-1 renal): > 58.5 µM | TGI (HOP-62 NSCLC): > 100 µM | TGI (MDA-MB-435): > 78.5 µM | TGI (OVCAR-3 ovarian): 3.19 µM | TGI (OVCAR-8 ovarian): > 100 µM | TGI (RXF 393 renal): 7.95 µM | TGI (SF-295 CNS): > 100 µM | TGI (SK-MEL-28 melanoma): 35.9 µM | TGI (UACC-62 melanoma): 8.45 µM

Nc1cccc2cc(Cl)cnc12
TGI (A549 NSCLC): > 100 µM | TGI (CAKI-1 renal): > 100 µM | TGI (HOP-62 NSCLC): > 100 µM | TGI (MDA-MB-435): > 100 µM | TGI (OVCAR-3 ovarian): > 100 µM | TGI (OVCAR-8 ovarian): > 100 µM | TGI (RXF 393 renal): > 100 µM | TGI (SF-295 CNS): > 100 µM | TGI (SK-MEL-28 melanoma): > 100 µM | TGI (UACC-62 melanoma): > 100 µM

O=[N+]([O-])C(=C1NCCN1)/C(Cl)=C(\Cl)Br
TGI (A549 NSCLC): > 100 µM | TGI (CAKI-1 renal): 30 µM | TGI (HOP-62 NSCLC): > 100 µM | TGI (MDA-MB-435): > 63.2 µM | TGI (OVCAR-3 ovarian): 38.7 µM | TGI (OVCAR-8 ovarian): > 100 µM | TGI (RXF 393 renal): 39.1 µM | TGI (SF-295 CNS): > 100 µM | TGI (SK-MEL-28 melanoma): > 77.7 µM | TGI (UACC-62 melanoma): > 100 µM

COC(=O)[C@H]1CO[C@@H](C(C)(C)C)N1C(=O)N1C=CC(=O)C[C@@H]1C
TGI (A549 NSCLC): > 100 µM | TGI (CAKI-1 renal): > 100 µM | TGI (HOP-62 NSCLC): > 100 µM | TGI (MDA-MB-435): > 100 µM | TGI (OVCAR-3 ovarian): > 100 µM | TGI (OVCAR-8 ovarian): > 100 µM | TGI (RXF 393 renal): > 100 µM | TGI (SF-295 CNS): > 100 µM | TGI (SK-MEL-28 melanoma): > 100 µM | TGI (UACC-62 melanoma): > 100 µM
